Laboratory results taken from publication PMC11494662, “Insight into the Course of the Ferrier Rearrangement Used to Obtain Untypical Diosgenyl Saponins” (The Journal of Organic Chemistry, 2024).
Values after ≈ are worked out from the molar mass of the structure shown.

Assays:
S. aureus ATCC 6538 = test: MIC, broth dilution method; assay type: cell-based; settings: Staphylococcus aureus, ATCC6538; MHB II, 18 h, 37 °C; read-out: Minimum inhibitory concentration S. aureus ATCC 6538
Experimental: (§1) MIC was determined with the dilution method in Mueller–Hinton II broth (MHB II) on 96-well polystyrene plates. The reference strains (Polish Academy of Sciences, Wroclaw, Poland) of Gram-positive bacteria (Enterococcus faecium ATCC 29,212, S. aureus ATCC 6538, S. aureus ATCC 43,300, S. aureus ATCC 12,598, S. aureus ATCC 25,923, S. aureus, ATCC 33,591, Staphylococcus epidermidis ATCC 14,990) and Gram-negative bacteria (Acinetobacter baumanii ATCC 23,506, Escherichia coli ATCC 25,922, Klebsiella pneumoniae ATCC 700,603, Pseudomonas aeruginosa ATCC 9027) were suspended in MHB II medium to initial inoculum of 10^5 cfu/mL. The microbes were exposed to graded concentrations of tested compounds (range 0.5–256 mg/L) for 18 h at 37 °C under aerobic conditions. The compounds were dissolved in DMSO and then diluted with PBS. […] MIC was taken as the lowest concentration at which no microbial growth was observed. The experiments were performed in triplicate.

S. aureus ATCC 33591 = test: MIC, broth dilution method; assay type: cell-based; settings: Staphylococcus aureus, ATCC33591; MHB II, 18 h, 37 °C; read-out: Minimum inhibitory concentration S. aureus ATCC 33591
Experimental: as §1

[1] = tested on: S. epidermidis ATCC 14990; test: MIC, broth dilution method; assay type: cell-based; settings: Staphylococcus epidermidis, ATCC14990; MHB II, 18 h, 37 °C; read-out: Minimum inhibitory concentration S. epidermidis ATCC 14990
Experimental: as §1

S. aureus ATCC 43300 = test: MIC, broth dilution method; assay type: cell-based; settings: Staphylococcus aureus, ATCC43300; MHB II, 18 h, 37 °C; read-out: Minimum inhibitory concentration S. aureus ATCC 43300
Experimental: as §1

S. aureus ATCC 12598 = test: MIC, broth dilution method; assay type: cell-based; settings: Staphylococcus aureus, ATCC12598; MHB II, 18 h, 37 °C; read-out: Minimum inhibitory concentration S. aureus ATCC 12598
Experimental: as §1

S. aureus ATCC 25923 = test: MIC, broth dilution method; assay type: cell-based; settings: Staphylococcus aureus, ATCC25923; MHB II, 18 h, 37 °C; read-out: Minimum inhibitory concentration S. aureus ATCC 25923
Experimental: as §1

E. faecium ATCC 29212 = test: MIC, broth dilution method; assay type: cell-based; settings: Enterococcus faecium, ATCC29212; MHB II, 18 h, 37 °C; read-out: Minimum inhibitory concentration E. faecium ATCC 29212
Experimental: as §1

[2] = tested on: prostate cancer cells (PC3 line); test: MTT cytotoxicity assay, PC3; assay type: cell-based, human; settings: for IC50: Homo sapiens, PC-3; for IC50 / IC50 PC3: PC3 cells, 48 h treatment, MTT; for SI PC3 (selectivity index): ratio of IC50 for normal cell line (HaCaT) to IC50 for PC3, 48 h
Experimental: (§2) The MTT assay was performed to specify the cytotoxicity of 7–12 and 13–18 against prostate cancer cells (PC3 line), breast cancer cells (MCF7 line), and human keratinocytes (HaCaT line). The mentioned cell lines were assayed by exposing them for 48 h to a medium containing the studied compounds over a wide range of concentrations. The IC50 values (dose of the compound which caused a 50% reduction of cell viability) and the selectivity indexes (SI), which show the ratio of IC50 for normal cell line to IC50 for cancer cell line, are shown in Table S2. An MTT assay was performed to specify the cytotoxicity of the studied compounds against breast cancer cells (MCF-7 line, ATCC), prostate cancer cells (PC3 line, ATCC) and human keratinocytes (HaCaT line, CLS). The MCF-7 cell line was cultured in an RPMI 1640 medium (Gibco, Thermo Fisher Scientific), the PC3 cell line in a F-12K medium (Gibco, Thermo Fisher Scientific), and the HaCaT cell line in a high-glucose DMEM (Gibco, Thermo Fisher Scientific). Each medium was supplemented with 10% fetal bovine serum (Gibco, Thermo Fisher Scientific) and antibiotics (penicillin and streptomycin, Gibco, Thermo Fisher Scientific). Cells were seeded at a density of 4000 per well into 96-well plates and incubated at 37 °C in a 5% CO2 atmosphere. The cells were treated with studied compounds in a concentration range of 0.1–100 μg/mL or with a vehicle (1% DMSO) as a control and subsequently incubated for 48 h. Thereafter, the MTT salt solution (3-(4,5-dimethylthiazol-2-yl)-2,5-diphenyltetrazolium bromide, VWR) was added at a concentration of 4 mg/mL (25 μL per well), and the obtained product (formazan) after 3 h of incubation was dissolved in DMSO. An EnSpire microplate reader (PerkinElmer) was used to measure absorbance at 570 nm (the reference wavelength was 660 nm). The viability of the control cells was taken as 100%. Three independent experiments were conducted in triplicate. Statistical analysis of the results and estimation of IC50 values were performed using GraphPad Prism 7 software.

[3] = tested on: breast cancer cells (MCF-7 line); test: MTT cytotoxicity assay, MCF7; assay type: cell-based, human; settings: for IC50: Homo sapiens; for IC50 / IC50 MCF7: MCF7 cells, 48 h treatment, MTT; for SI MCF7 (selectivity index): ratio of IC50 for normal cell line (HaCaT) to IC50 for MCF7, 48 h
Experimental: as §2

[4] = tested on: human keratinocytes (HaCaT line); test: MTT cytotoxicity assay, HaCaT; assay type: cell-based; settings: HaCaT normal cells, 48 h treatment; for IC50: Homo sapiens
Experimental: as §2

SMILES	MIC (S. aureus ATCC 6538) [µg/mL]	MIC (S. aureus ATCC 33591) [µg/mL]	MIC [1] [µg/mL]	MIC (S. aureus ATCC 43300) [µg/mL]	MIC (S. aureus ATCC 12598) [µg/mL]	MIC (S. aureus ATCC 25923) [µg/mL]	MIC (E. faecium ATCC 29212) [µg/mL]	IC50 [2] [µM]	IC50 [3] [µM]	IC50 [4] [µM]	SI PC3 (selectivity index) [2]	SI MCF7 (selectivity index) [3]	further results
C[C@@H]1CC[C@@]2(OC1)O[C@H]1C[C@H]3[C@@H]4CC=C5C[C@@H](O[C@H]6CC[C@@H](O)[C@H](C)O6)CC[C@]5(C)[C@H]4CC[C@]3(C)[C@H]1[C@@H]2C [15α, Diosgenyl 2,3,6-Trideoxy-α-L-erythro-hexopyranoside]	256 (≈ 484 µM)	> 256	> 256	> 256	> 256	256 (≈ 484 µM)	> 256	26.5	87.1	56.9	–	–	–
C[C@@H]1CC[C@@]2(OC1)O[C@H]1C[C@H]3[C@@H]4CC=C5C[C@@H](O[C@@H]6CC[C@H](O)[C@@H](CO)O6)CC[C@]5(C)[C@H]4CC[C@]3(C)[C@H]1[C@@H]2C [13α, Diosgenyl 2,3-Dideoxy-α-D-erythro-hexopyranoside]	> 256	> 256	> 256	> 256	> 256	> 256	> 256	22.5	38.6	21.6	0.96	0.56	–
C[C@@H]1CC[C@@]2(OC1)O[C@H]1C[C@H]3[C@@H]4CC=C5C[C@@H](O[C@@H]6C=C[C@@H](O)[C@@H](CO)O6)CC[C@]5(C)[C@H]4CC[C@]3(C)[C@H]1[C@@H]2C [8α, Diosgenyl 2,3-Dideoxy-α-D-threo-hex-2-enopyranoside]	> 256	> 256	> 256	> 256	> 256	> 256	> 256	21.4	44.9	22.2	1.04	0.49	–
C[C@@H]1CC[C@@]2(OC1)O[C@H]1C[C@H]3[C@@H]4CC=C5C[C@@H](O[C@@H]6C=C[C@H](O)CO6)CC[C@]5(C)[C@H]4CC[C@]3(C)[C@H]1[C@@H]2C [11α]	256 (≈ 499 µM)	> 256	256 (≈ 499 µM)	> 256	> 256	> 256	> 256	24.4	40.6	24.5	1.00	0.60	–
C[C@@H]1CC[C@@]2(OC1)O[C@H]1C[C@H]3[C@@H]4CC=C5C[C@@H](O[C@H]6CC[C@H](O)[C@H](C)O6)CC[C@]5(C)[C@H]4CC[C@]3(C)[C@H]1[C@@H]2C [16α, Diosgenyl 2,3,6-Trideoxy-α-L-threo-hexopyranoside]	> 256	> 256	> 256	> 256	> 256	> 256	> 256	29.9	36.6	30.6	1.02	0.84	–
C[C@@H]1CC[C@@]2(OC1)O[C@H]1C[C@H]3[C@@H]4CC=C5C[C@@H](O[C@@H]6C=C[C@@H](O)CO6)CC[C@]5(C)[C@H]4CC[C@]3(C)[C@H]1[C@@H]2C [12β]	256 (≈ 499 µM)	> 256	> 256	> 256	> 256	> 256	> 256	27.9	35.6	57.9	–	ca. 2	SI MCF7 (selectivity index) ([3]; listed as 12): 1.62
C[C@@H]1CC[C@@]2(OC1)O[C@H]1C[C@H]3[C@@H]4CC=C5C[C@@H](O[C@H]6C=C[C@H](O)CO6)CC[C@]5(C)[C@H]4CC[C@]3(C)[C@H]1[C@@H]2C [11β]	> 256	> 256	> 256	> 256	> 256	> 256	> 256	–	–	–	–	–	IC50 PC3 [2]: completely inactive; IC50 PC3 ([2]; listed as 11): inactive; IC50 MCF7 [3]: completely inactive; IC50 MCF7 ([3]; listed as 11): inactive; IC50 HaCaT [4]: completely inactive; IC50 HaCaT ([4]; listed as 11): inactive
C[C@@H]1CC[C@@]2(OC1)O[C@H]1C[C@H]3[C@@H]4CC=C5C[C@@H](O[C@@H]6C=C[C@H](O)[C@@H](CO)O6)CC[C@]5(C)[C@H]4CC[C@]3(C)[C@H]1[C@@H]2C [7α, Diosgenyl 2,3-Dideoxy-α-D-erythro-Hex-2-enopyranoside]	256 (≈ 472 µM)	> 256	256 (≈ 472 µM)	> 256	> 256	> 256	256 (≈ 472 µM)	16.8	56.1	20.2	1.20	0.36	–
C[C@@H]1CC[C@@]2(OC1)O[C@H]1C[C@H]3[C@@H]4CC=C5C[C@@H](O[C@H]6C=C[C@@H](O)[C@H](C)O6)CC[C@]5(C)[C@H]4CC[C@]3(C)[C@H]1[C@@H]2C [9α, Diosgenyl 2,3,6-Trideoxy-α-L-erythro-hex-2-enopyranoside]	> 256	> 256	> 256	> 256	> 256	> 256	> 256	25.4	183	43.4	1.71	0.24	–
C[C@@H]1CC[C@@]2(OC1)O[C@H]1C[C@H]3[C@@H]4CC=C5C[C@@H](O[C@@H]6CC[C@@H](O)CO6)CC[C@]5(C)[C@H]4CC[C@]3(C)[C@H]1[C@@H]2C [18β]	> 256	> 256	> 256	> 256	> 256	> 256	> 256	28.9	26.9	59.9	ca. 2	ca. 2	SI PC3 (selectivity index) ([2]; listed as 18): 2.07; SI MCF7 (selectivity index) ([3]; listed as 18): 2.23
C[C@@H]1CC[C@@]2(OC1)O[C@H]1C[C@H]3[C@@H]4CC=C5C[C@@H](OC6CC[C@H](O)CO6)CC[C@]5(C)[C@H]4CC[C@]3(C)[C@H]1[C@@H]2C (stereo partly drawn) [17β]	256 (≈ 497 µM)	> 256	> 256	> 256	> 256	> 256	> 256	23.2	26.3	33.9	1.46	1.29	–
